From ChEMBL document CHEMBL1201862, “PubChem BioAssay data set” (2004)
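Results reflect a 48-hour exposure of cells in 96-well plates to compound at five concentrations. Abbreviation: GI50, concentration required for 50% inhibition of growth.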 Calls of active or inactive are those of the source. Cut-off read from the data, not from the text of the source: active = GI50 up to about 1.1 µM and inactive = higher.

Legend:
Assay in all cases: growth of human tumour cells (NCI), 48 h
MDA-MB-231 = tested on: MDA-MB-231
UACC-62 = tested on: UACC-62
OVCAR-4 = tested on: OVCAR-4
BT-549 = tested on: BT-549
NCI-H522 = tested on: NCI-H522
M14 = tested on: M14
OVCAR-3 = tested on: OVCAR-3
SNB-19 = tested on: SNB-19
SW-620 = tested on: SW-620
CAKI-1 = tested on: CAKI-1
MOLT-4 = tested on: MOLT-4
IGROV-1 = tested on: IGROV-1
ACHN = tested on: ACHN
LOX IMVI = tested on: LOX IMVI
NCI/ADR-RES = tested on: NCI/ADR-RES
HCT-116 = tested on: HCT-116
HCT-15 = tested on: HCT-15
HOP-92 = tested on: HOP-92

Measured: GI50

COC(O)C(=O)c1c2c(cc3c1CCC3)CCCC2 (stereo unspecified)
inactive: MDA-MB-231 9.64 µM | UACC-62 3.47 µM | OVCAR-4 7.31 µM | BT-549 2.39 µM | NCI-H522 3.84 µM | M14 10.2 µM | OVCAR-3 4.65 µM | SNB-19 17.2 µM | SW-620 3.44 µM | CAKI-1 14.7 µM | MOLT-4 3.38 µM | IGROV-1 4.12 µM | ACHN 8.38 µM | LOX IMVI 1.99 µM | NCI/ADR-RES 14.7 µM | HCT-116 2.02 µM
4.25 µM: HCT-15

C=C1C(=O)O[C@H]2C/C(C=O)=C\[C@H]3O[C@H]3/C(COC(=O)C(C)C)=C/CC12 (stereo partly specified)
3.3 µM: HCT-15
inactive: MDA-MB-231 3.89 µM | UACC-62 2.2 µM | BT-549 12.2 µM | NCI-H522 3.39 µM | OVCAR-3 6.49 µM | SNB-19 15.8 µM | SW-620 2.52 µM | CAKI-1 2.65 µM | MOLT-4 3.06 µM | IGROV-1 4.65 µM | ACHN 2.32 µM | LOX IMVI 3.21 µM | NCI/ADR-RES 6.34 µM | HCT-116 3.05 µM

Cn1c(CO)ccc1-c1ccc(-c2ccc(CO)[se]2)[se]1
inactive: MDA-MB-231 21.2 µM | UACC-62 6.95 µM | BT-549 11.1 µM | NCI-H522 18.8 µM | M14 10.4 µM | OVCAR-3 2.01 µM | SNB-19 > 63.4 µM | SW-620 1.58 µM | MOLT-4 3.76 µM | ACHN 19.3 µM | LOX IMVI 16.2 µM | NCI/ADR-RES 33.9 µM
active: OVCAR-4 0.578 µM | CAKI-1 0.0176 µM | IGROV-1 0.0621 µM | HCT-116 0.859 µM
9.82 µM: HCT-15

Cc1cc(N(CCC#N)CCC#N)ccc1C(/N=N/c1ccc(Cl)cc1)=N\NC(=O)c1ccccc1
inactive: MDA-MB-231 34.6 µM | UACC-62 29.8 µM | OVCAR-4 47.8 µM | BT-549 25.6 µM | NCI-H522 18.4 µM | M14 80.5 µM | OVCAR-3 42.1 µM | SNB-19 41.9 µM | CAKI-1 98.9 µM | MOLT-4 40 µM | IGROV-1 24.5 µM | ACHN 82 µM | NCI/ADR-RES 27.4 µM | HCT-116 26.5 µM
16 µM: HCT-15

NS(=O)(=O)c1ccc(-n2c(-c3cccs3)nc3ccc(I)cc3c2=O)cc1
20.9 µM: HCT-15
inactive: UACC-62 17.9 µM | OVCAR-4 24.7 µM | BT-549 16.3 µM | HOP-92 18.5 µM | NCI-H522 19.7 µM | M14 23.7 µM | OVCAR-3 16 µM | SNB-19 40.4 µM | SW-620 37.9 µM | CAKI-1 19.4 µM | MOLT-4 52.8 µM | IGROV-1 21.7 µM | ACHN 21.4 µM | LOX IMVI 18.4 µM | NCI/ADR-RES 29.1 µM | HCT-116 17.3 µM

CN1C(C)(C)CC(=O)C(Br)C1(C)C (stereo unspecified)
> 100 µM: HCT-15
inactive: UACC-62 > 100 µM | OVCAR-4 > 100 µM | BT-549 > 100 µM | HOP-92 > 100 µM | NCI-H522 > 100 µM | M14 > 100 µM | OVCAR-3 > 100 µM | SNB-19 > 100 µM | SW-620 > 100 µM | CAKI-1 > 100 µM | MOLT-4 > 100 µM | IGROV-1 > 100 µM | ACHN > 100 µM | LOX IMVI > 100 µM | NCI/ADR-RES > 100 µM | HCT-116 > 10 µM

COc1ccc(C2C=C(c3ccc(C)cc3)N(c3ccc(OC)cc3[N+](=O)[O-])C3C(=O)OC(=O)C23)c(OC)c1 (stereo unspecified)
33.5 µM: HCT-15
inactive: MDA-MB-231 53.2 µM | UACC-62 49.4 µM | OVCAR-4 62.5 µM | BT-549 53.3 µM | NCI-H522 10.4 µM | M14 34.3 µM | OVCAR-3 20.2 µM | SNB-19 47 µM | SW-620 28.6 µM | CAKI-1 37.3 µM | MOLT-4 32.6 µM | IGROV-1 15.2 µM | ACHN 16 µM | LOX IMVI 25.5 µM | HCT-116 28.2 µM

COCC1OC(OC2C3=C(C(C)C)CCC3(C)/C=C3\C(CCC3(O)COC)C(C)C2O)C(O)C2OC3OC12OC3(C)C1CO1 (stereo unspecified)
inactive: MDA-MB-231 50.9 µM | UACC-62 21.9 µM | OVCAR-4 25.5 µM | BT-549 16.6 µM | HOP-92 17.2 µM | NCI-H522 22.9 µM | M14 43.2 µM | OVCAR-3 26.4 µM | SNB-19 28.1 µM | SW-620 34.4 µM | CAKI-1 21.8 µM | MOLT-4 27.6 µM | IGROV-1 37.8 µM | ACHN 47.2 µM | LOX IMVI 22.5 µM | HCT-116 34 µM
25.1 µM: HCT-15

C=C1C(=O)O[C@@]23C1CC[C@@H](C)C2CC[C@@]1(C)OC31 (stereo partly specified)
9.33 µM: HCT-15
inactive: UACC-62 12.1 µM | OVCAR-4 8.91 µM | BT-549 7.71 µM | HOP-92 8.79 µM | NCI-H522 6.32 µM | M14 3.52 µM | OVCAR-3 3.27 µM | SNB-19 18.6 µM | SW-620 8.81 µM | CAKI-1 5.75 µM | MOLT-4 3.61 µM | IGROV-1 11.7 µM | ACHN 12.4 µM | LOX IMVI 11.5 µM | NCI/ADR-RES 16.8 µM | HCT-116 8.65 µM

Cc1nc2ccccc2n1Cc1nnc2n1N=C(c1ccccc1)CS2
inactive: MDA-MB-231 20.6 µM | UACC-62 23.9 µM | OVCAR-4 45.1 µM | BT-549 32.1 µM | NCI-H522 22.1 µM | M14 32.8 µM | OVCAR-3 35.2 µM | SNB-19 32.1 µM | SW-620 34.4 µM | CAKI-1 37.2 µM | MOLT-4 27.2 µM | IGROV-1 2.4 µM | ACHN 47.6 µM | NCI/ADR-RES 64.1 µM | HCT-116 27.7 µM
54.8 µM: HCT-15

NC12Oc3cc(O)cc(O)c3C1(c1ccc(Cl)cc1)c1c(O)cc(O)cc1O2 (stereo unspecified)
inactive: UACC-62 42 µM | OVCAR-4 27.5 µM | BT-549 > 100 µM | HOP-92 25.9 µM | NCI-H522 24.7 µM | M14 > 100 µM | OVCAR-3 47.6 µM | SNB-19 73.1 µM | SW-620 > 100 µM | CAKI-1 > 100 µM | MOLT-4 27.9 µM | IGROV-1 41.7 µM | ACHN > 100 µM | LOX IMVI 57.4 µM | NCI/ADR-RES > 100 µM | HCT-116 46 µM
> 100 µM: HCT-15

c1cc2c(s1)-c1sccc1C21OCCO1
76.2 µM: HCT-15
inactive: MDA-MB-231 > 100 µM | UACC-62 19.5 µM | OVCAR-4 > 100 µM | BT-549 50.5 µM | NCI-H522 82.8 µM | M14 > 100 µM | OVCAR-3 > 100 µM | SNB-19 > 100 µM | CAKI-1 > 100 µM | MOLT-4 > 100 µM | ACHN > 100 µM | LOX IMVI > 100 µM | NCI/ADR-RES > 100 µM | HCT-116 58.9 µM
